Assay results from US20080261812A1, “Pesticidal Mixtures” (BASF SE, priority 2005, published 2008).
Read-outs that look alike come from different tables or passages of the source.

Tested on: southern armyworm (Spodoptera eridania) 3rd-instar larvae
Assay: Laboratory bioassay with southern armyworm larvae on dip-treated lima bean leaves
Assay type: in vivo
Settings: foliar, 120 h, read-out: % Mortality Observed
From the text: Serial dilutions of technical grade insecticides were made in 1:1 acetone:water diluent. Lima bean leaves were dipped into treatment solutions and allowed to air-dry. A single treated leaf was placed topside-up onto water-moistened filter paper in plastic Petri dishes, and then seven 3rd-instar southern armyworm (Spodoptera eridania) larvae were placed onto each leaf. Dishes were covered with a plastic lid to contain larvae. Each treatment was replicated 4 times (1 replicate=1 Petri dish). Following treatment application, infested Petri dishes were held in the laboratory under fluorescent lighting at 26° C. Numbers of live and dead larvae were counted in each dish at 5 days after treatment (DAT), and percent mortality was calculated for each treatment.
To determine if the insecticidal mixture was synergistic, Limpel's formula was used:
E=Expected % mortality of the mixture X=% mortality of compound X, as measured independently Y=% mortality of compound Y, as measured independently
Synergism was evident if the % observed mortality for the mixture was greater than the % expected mortality.

## N#Cc1ccc(CC(=NNC(=O)Nc2ccc(OC(F)(F)F)cc2)c2cccc(C(F)(F)F)c2)cc1 [Metaflumizone, metaflumizone]
Single insecticide, dose concentration 0.6 ppm, leaf dip, 5 DAT, 3rd-instar larvae
  mortality at 0.6 ppm: 0%
Single insecticide, dose concentration 1.0 ppm, leaf dip, 5 DAT, 3rd-instar larvae
  mortality at 1 ppm: 7%

## FC(F)(F)c1ccc(OCCCOc2c(Cl)cc(OCC=C(Cl)Cl)cc2Cl)nc1 [Pyridalyl, 2,6-dichloro-4-(3,3-dichloroallyloxy)phenyl 3-[5-(trifluoromethyl)-2-pyridyloxy]propyl ether]
  mortality at 0.6 ppm: 10%
